Reference: PubChem BioAssay (NCI)
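Tested at 5 concentrations; 48 h exposure; 96-well plates; endpoints linearly interpolated, else capped at highest concentration. TGI is the concentration that stops growth completely.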

Experiments:
Experiment in all cases: growth of human tumour cells (NCI), 48 h
RPMI-8226 leukemia = tested on: RPMI-8226 leukemia
SW-620 colon = tested on: SW-620 colon
SNB-75 CNS = tested on: SNB-75 CNS
XF 498 CNS = tested on: XF 498 CNS
K-562 leukemia = tested on: K-562 leukemia
SK-MEL-5 melanoma = tested on: SK-MEL-5 melanoma
NCI-H522 lung = tested on: NCI-H522 lung
KM12 colon = tested on: KM12 colon
IGROV1 ovarian = tested on: IGROV1 ovarian
NCI-H226 lung = tested on: NCI-H226 lung
M14 melanoma = tested on: M14 melanoma
786-0 renal = tested on: 786-0 renal
M19-MEL melanoma = tested on: M19-MEL melanoma
EKVX NSCLC = tested on: EKVX NSCLC
TK-10 renal = tested on: TK-10 renal
COLO 205 colon = tested on: COLO 205 colon
SNB-19 CNS = tested on: SNB-19 CNS
ACHN renal = tested on: ACHN renal
HCT-15 colon = tested on: HCT-15 colon
MALME-3M melanoma = tested on: MALME-3M melanoma
OVCAR-3 ovarian = tested on: OVCAR-3 ovarian
NCI-H23 lung = tested on: NCI-H23 lung
SN12C renal = tested on: SN12C renal
OVCAR-4 ovarian = tested on: OVCAR-4 ovarian
OVCAR-8 ovarian = tested on: OVCAR-8 ovarian
HCT-116 colon = tested on: HCT-116 colon
U251 CNS = tested on: U251 CNS
DLD-1 colon = tested on: DLD-1 colon
CCRF-CEM leukemia = tested on: CCRF-CEM leukemia
OVCAR-5 ovarian = tested on: OVCAR-5 ovarian
LXFL 529 NSCLC = tested on: LXFL 529 NSCLC
UACC-257 melanoma = tested on: UACC-257 melanoma
HL-60(TB) leukemia = tested on: HL-60(TB) leukemia
A498 renal = tested on: A498 renal
HOP-92 NSCLC = tested on: HOP-92 NSCLC
SNB-78 CNS = tested on: SNB-78 CNS
KM20L2 colon = tested on: KM20L2 colon
DMS 273 small cell lung = tested on: DMS 273 small cell lung
MOLT-4 leukemia = tested on: MOLT-4 leukemia
CAKI-1 renal = tested on: CAKI-1 renal
UO-31 renal = tested on: UO-31 renal
SK-MEL-28 melanoma = tested on: SK-MEL-28 melanoma
SK-OV-3 ovarian = tested on: SK-OV-3 ovarian
SF-295 CNS = tested on: SF-295 CNS
DMS 114 small cell lung = tested on: DMS 114 small cell lung
NCI-H460 lung = tested on: NCI-H460 lung
SK-MEL-2 melanoma = tested on: SK-MEL-2 melanoma
UACC-62 melanoma = tested on: UACC-62 melanoma
SF-268 CNS = tested on: SF-268 CNS
A549 NSCLC = tested on: A549 NSCLC
SF-539 CNS = tested on: SF-539 CNS
HOP-62 NSCLC = tested on: HOP-62 NSCLC
RXF 393 renal = tested on: RXF 393 renal
HCC-2998 colon = tested on: HCC-2998 colon
HT29 colon = tested on: HT29 colon
SR leukemia = tested on: SR leukemia
HOP-18 NSCLC = tested on: HOP-18 NSCLC
LOX IMVI melanoma = tested on: LOX IMVI melanoma

Measured: TGI

COc1cc2c(cc1O)C=NCC2
not listed: HOP-62 NSCLC | RXF 393 renal | HCC-2998 colon | HT29 colon | SR leukemia | HOP-18 NSCLC | LOX IMVI melanoma
> 100 µM: all other assays above

CCC(C)CN1C(=O)NC(C)(Cc2ccccc2)C1=O (configuration not stated)
not listed: RPMI-8226 leukemia | K-562 leukemia | IGROV1 ovarian | HCT-15 colon | OVCAR-3 ovarian | OVCAR-4 ovarian | HCT-116 colon | CCRF-CEM leukemia | A498 renal | MOLT-4 leukemia | SK-OV-3 ovarian | UACC-62 melanoma
> 100 µM: all other assays above
